According to publication PMC1525162 (BMC Pharmacology, 2006):
Entries after “also recorded” stand apart in the source; their conditions may differ. Values belong to the molecule of their own block, whether it stands above or below them. Bridge positions count the residues as written; N and C are the ends. Ends that are not written are not given here. Peptide text beside a SMILES is read from it.

Key:
CGRP receptor = conditions: displaced by CGRP and CGRP(8–37); cited from earlier work
Excerpt: (§1) Consequently, it is reasonable to assume that interactions of CGRP-F37 with the mature CLR-RAMP1 heterodimer would necessitate a more complex relationship in order to account for the high affinity binding associated with ...

[1] = system: endogenous CGRP receptor expressed on SK-N-MC human neuroblastoma cells; conditions: cited from earlier work
Excerpt: as §1

[2] = target: T1, wild type CLR-RAMP1 heterodimer (HEK293T-RAMP1 membranes) (Homo sapiens, UniProt O60894+Q16602); assay: Competition radioligand binding, wild type CLR; conditions: compared to Ki of CGRP
Procedure: (§2) A crude cell membrane preparation was prepared as previously described. Briefly, HEK293T-RAMP1 membranes were prepared by scraping and transferring cells to a 50 mL conical tube using cold HBSS followed with two washings by centrifugation at 1000 × g using cold HBSS. The intact cell pellet was resuspended in 10 mL of 0.25 M sucrose containing a protease inhibitor cocktail consisting of 10μg/mL benzamidine, 10μg/mL leupeptin, and 20μg/mL phenylmethysulfonylfluoride. The cells were disrupted by freezing followed by Dounce homogenization of the thawed suspension using 20 strokes from a loose fitting (B) pestle. This mixture was then centrifuged at 1260 × g for 5 min at 4°C. Buffer A (20 mM HEPES, pH 7.5, 1.4 mM EGTA, 12.5 mM MgCl2, 10μg/mL benzamidine, 10μg/mL leupeptin, and 20μg/mL phenylmethysulfonylfluoride) was added to the supernatant and centrifuged again at 30,000 × g for 15 min at 4°C. The resultant pellet was kept, resuspended in buffer A then centrifuged once more at 30,000 × g for 15 min at 4°C. […] Protein concentrations were measured using the method of Bradford.
(§3) The radioligand binding protocol used for this study was performed as previously described. […] Amounts of total and non-specific radiolabel bound to cell membranes were calculated from radioactive counts remaining on the glass fiber filters.

[3] = target: wild type CLR-RAMP1 (transiently transfected HEK293T-RAMP1 cells) (Homo sapiens, UniProt O60894+Q16602); assay: cAMP generation, wild type CLR; type: cell-based
[4] = system: L24A, L34A and L24A,L34A CLR-RAMP1 heterodimers versus wild type; assay: Competition/saturation binding, leucine mutant CLRs compared with wild type; set-up: species or system human; conditions: for affinity at leucine mutants compared with wild type: L34A, L24A,L34A vs wild type CLR
Procedure: A crude cell membrane preparation was prepared as previously described. Briefly, HEK293T-RAMP1 membranes were prepared by scraping and transferring cells to a 50 mL conical tube using cold HBSS followed with two washings by centrifugation at 1000 × g using cold HBSS. The intact cell pellet was resuspended in 10 mL of 0.25 M sucrose containing a protease inhibitor cocktail consisting of 10μg/mL benzamidine, 10μg/mL leupeptin, and 20μg/mL phenylmethysulfonylfluoride. The cells were disrupted by freezing followed by Dounce homogenization of the thawed suspension using 20 strokes from a loose fitting (B) pestle. This mixture was then centrifuged at 1260 × g for 5 min at 4°C. Buffer A (20 mM HEPES, pH 7.5, 1.4 mM EGTA, 12.5 mM MgCl2, 10μg/mL benzamidine, 10μg/mL leupeptin, and 20μg/mL phenylmethysulfonylfluoride) was added to the supernatant and centrifuged again at 30,000 × g for 15 min at 4°C. The resultant pellet was kept, resuspended in buffer A then centrifuged once more at 30,000 × g for 15 min at 4°C. The final crude membrane pellet was resuspended in buffer A containing 10% glycerol and stored in aliquots at -70°C until used for radioligand binding. Protein concentrations were measured using the method of Bradford.
The radioligand binding protocol used for this study was performed as previously described. […] Binding was stopped by filtering the membranes though Whatman GF/C glass fiber filters, followed by 5 – 5 mL washes with cold buffer B (20 mM HEPES, pH 7.5, 1.4 mM EGTA, 12.5 mM MgCl2) to remove any unbound drug. Amounts of total and non-specific radiolabel bound to cell membranes were calculated from radioactive counts remaining on the glass fiber filters.

[5] = system: endogenous CGRP receptors on acutely isolated pancreatic acinar cells; set-up: method as in PMID 7689110; conditions: cited from earlier work
[6] = system: wild type and L24A, L34A, L24A,L34A CLR-RAMP1 (HEK293T-RAMP1 cells); assay: cAMP generation, wild type and leucine mutant CLRs compared; conditions: L24A, L34A, L24A,L34A vs wild type CLR
[7] = target: T1, wild type CLR-RAMP1 heterodimer (HEK293T-RAMP1 membranes); assay: Saturation binding of [^125I-Tyr]CGRP(8–37), wild type CLR; conditions: per mg wild type membrane protein; mean ± S.E., n = 3 in duplicate
Procedure: as §2, §3

[8] = system: HEK293T-RAMP1 membranes without CLR; assay: Radioligand binding, non-transfected or empty-vector HEK293T-RAMP1 membranes; conditions: increasing radioligand concentrations, data not shown
Procedure: as §2, §3

[9] = target: CGRP receptors endogenously expressed in rat brain and peripheral tissues; set-up: method as in Van Rossum et al., 1994; conditions: previously published equilibrium dissociation constant; ref Van Rossum et al., 1994; read-out: Reported Wild Type, Kd of radioligand; cited from earlier work
[10] = target: endogenous CGRP receptors expressed in the guinea pig atria; set-up: method as in Rovero et al., 1992; conditions: estimated from functional characterization, n = 3, ref Rovero et al., 1992, read-out: Reported Wild Type, equilibrium dissociation constant; cited from earlier work
[11] = target: CLR-RAMP1 heterodimer with the L24A CLR mutant (UniProt Q16602); assay: radioligand binding; competition: increasing unlabeled peptide against specific [125I-Tyr]CGRP(8–37) binding on crude membranes of transiently transfected HEK293T-RAMP1 cells, same buffer as the saturation binding; Ki from IC50 by the method of Cheng and Prusoff
[12] = target: CLR-RAMP1 heterodimer with the L24A,L34A CLR double mutant (UniProt Q16602); assay: as above
[13] = target: CLR-RAMP1 heterodimer with the L34A CLR mutant (UniProt Q16602); assay: as above
[14] = target: CLR-RAMP1 heterodimer, wild type calcitonin-like receptor (CLR) with receptor-activity-modifying protein-1 (RAMP1) (UniProt Q16602); assay: as above
[15] = target: T2, CLR-RAMP1 heterodimer, wild type calcitonin-like receptor (CLR) with receptor-activity-modifying protein-1 … (human | , UniProt Q16602 23-461; O60894 27-148); assay: cell-based or functional assay
[16] = target: T3, CLR-RAMP1 heterodimer with the L24A CLR mutant (human | , UniProt Q16602 23-461; O60894 27-148, L24A); assay: cell-based or functional assay
[17] = target: T4, CLR-RAMP1 heterodimer with the L34A CLR mutant (human | , UniProt Q16602 23-461; O60894 27-148, L34A); assay: cell-based or functional assay
[18] = target: T5, CLR-RAMP1 heterodimer with the L24A,L34A CLR double mutant (human | , UniProt Q16602 23-461; O60894 27-148, L24A | L34A); assay: cell-based or functional assay
[19] = target: T2, CLR-RAMP1 heterodimer, wild type …; assay: radioligand binding; competition: increasing unlabeled peptide against specific [125I-Tyr]CGRP(8–37) binding on crude membranes of transiently transfected HEK293T-RAMP1 cells, same buffer as the saturation binding; Ki from IC50 by the method of Cheng and Prusoff
[20] = target: T3, CLR-RAMP1 heterodimer with the L24A CLR …; assay: as above
[21] = target: T4, CLR-RAMP1 heterodimer with the L34A CLR …; assay: as above
[22] = target: T5, CLR-RAMP1 heterodimer with the …; assay: as above

Molecule: NCCCC[C@H](NC(=O)[C@@H](Cc1cc(Br)c(O)c(Br)c1)NC(=O)N1CCC(N2Cc3ccccc3NC2=O)CC1)C(=O)N1CCN(c2ccncc2)CC1 [BIBN4096BS]
displacement in competition binding (CGRP receptor): selectively be displaced in competition binding assays by CGRP and the receptor antagonist, CGRP(8–37)
affinity for endogenous CGRP receptor [1]: high affinity

Molecule: Ac-SGGVVKNNFVPTNVGSKAF-NH2 [AcCGRP(19–37)]
affinity at leucine mutants compared with wild type [4]: significantly different (P < .05) from the wild type receptor
Kd [10]: 0.933 µM

Molecule: AcCGRP(19–37) (peptide)
Ki [11]: 3 µM
Ki [12]: 2 µM
Ki [13]: 4.6 µM
Ki [14]: 0.227 µM

Molecule: ACDTATCVTHRLAGLLSRSGGVVKNNFVPTNVGSKA-NH2 (not fully specified (bridges); cysteine pairing not given here) [CGRP(1–36)]
EC50 of cAMP generation in transiently transfected HEK293T-RAMP1 cells [15]: 4.3 µM
EC50 of cAMP generation in transiently transfected HEK293T-RAMP1 cells [16]: 3.4 µM
EC50 of cAMP generation in transiently transfected HEK293T-RAMP1 cells [17]: 5.6 µM
EC50 of cAMP generation in transiently transfected HEK293T-RAMP1 cells [18]: 4.2 µM
Ki [19]: > 10 µM
Ki [20]: > 10 µM
Ki [21]: > 10 µM
Ki [22]: > 10 µM

The next lines start with results.

affinity for wild type CLR compared with CGRP [2]: significant affinity loss
maximal cAMP response ([3]; CGRP(1–36) compared with CGRP, CGRP(1–19) compared with CGRP(1–36) and CGRP): maximal response was similar
fold loss of EC50 potency vs CGRP, wild type ([3]; cAMP EC50 of the fragment compared with CGRP): over 2,600 fold
cAMP potency compared with CGRP, wild type ([3]; compared to CGRP): significantly less
affinity at leucine mutants compared with wild type [4]: no differences
Molecule: CC(C)C[C@H](NC(=O)CNC(=O)[C@H](C)NC(=O)[C@H](CC(C)C)NC(=O)[C@H](CCCNC(=N)N)NC(=O)[C@H](Cc1c[nH]cn1)NC(=O)[C@@H](NC(=O)[C@@H](NC(=O)[C@@H]1CSSC[C@H](NC(=O)[C@H](C)N)C(=O)N[C@@H](CC(=O)O)C(=O)N[C@@H]([C@@H](C)O)C(=O)N[C@@H](C)C(=O)N[C@@H]([C@@H](C)O)C(=O)N1)C(C)C)[C@@H](C)O)C(=O)N[C@@H](CC(C)C)C(=O)N[C@@H](CO)C(=O)N[C@@H](CCCNC(=N)N)C(=O)N[C@@H](CO)C(=O)NCC(=O)NCC(=O)N[C@H](C(=O)N[C@H](C(=O)N[C@@H](CCCCN)C(=O)N[C@@H](CC(N)=O)C(=O)N[C@@H](CC(N)=O)C(=O)N[C@@H](Cc1ccccc1)C(=O)N[C@H](C(=O)N1CCC[C@H]1C(=O)N[C@H](C(=O)N[C@@H](CC(N)=O)C(=O)N[C@H](C(=O)NCC(=O)N[C@@H](CO)C(=O)N[C@@H](CCCCN)C(=O)N[C@@H](C)C(N)=O)C(C)C)[C@@H](C)O)C(C)C)C(C)C)C(C)C [CGRP(1–36)] (H-ACDTATCVTHRLAGLLSRSGGVVKNNFVPTNVGSKA-NH2; disulfide 2-7 (inferred); N-terminus assumed)
amylase release [5]: increase amylase release
cAMP potency at leucine mutants compared with wild type [6]: no different; also recorded: no significant potency differences

Bmax (maximal specific binding) [7]: 285 ± 206 fmols/mg
fold decrease in affinity, mutant receptors vs wild type ([4]; L34A and L24A,L34A compared to wild type CLR): ~10 fold
specific binding without CLR [8]: no specific binding
Molecule: CC(C)C[C@H](NC(=O)CNC(=O)[C@H](C)NC(=O)[C@H](CC(C)C)NC(=O)[C@H](CCCNC(=N)N)NC(=O)[C@H](Cc1c[nH]cn1)NC(=O)[C@@H](NC(=O)[C@@H](NC(=O)[C@@H](N)Cc1ccc(O)c(I)c1)C(C)C)[C@@H](C)O)C(=O)N[C@@H](CC(C)C)C(=O)N[C@@H](CO)C(=O)N[C@@H](CCCNC(=N)N)C(=O)N[C@@H](CO)C(=O)NCC(=O)NCC(=O)N[C@H](C(=O)N[C@H](C(=O)N[C@@H](CCCCN)C(=O)N[C@@H](CC(N)=O)C(=O)N[C@@H](CC(N)=O)C(=O)N[C@@H](Cc1ccccc1)C(=O)N[C@H](C(=O)N1CCC[C@H]1C(=O)N[C@H](C(=O)N[C@@H](CC(N)=O)C(=O)N[C@H](C(=O)NCC(=O)N[C@@H](CO)C(=O)N[C@@H](CCCCN)C(=O)N[C@@H](C)C(=O)N[C@@H](Cc1ccccc1)C(N)=O)C(C)C)[C@@H](C)O)C(C)C)C(C)C)C(C)C [[^125I-Tyr]CGRP(8–37)]
Kd [9]: 0.0002 µM
